Test results as given in US20090233942A1, “Genetic markers associated with response to antidepressants” (priority 2008, published 2009).

Tested on: adult patients diagnosed with MDD
Experiment: Eight-week randomized, double-blind, placebo-controlled study: association of sequenced gene markers (Tables 1-17) with vilazodone response as change of MADRS
Assay type: in vivo, human
Settings: mean MADRS decrease
Excerpt: There was a wide range of inter-individual variability in response to vilazodone as well as to placebo and the active comparators. This variability may be partially due to genetic differences among the individuals treated. This example illustrates a randomized, double-blind, placebo-controlled, multicenter, eight-week study designed to discover genetic markers of response to vilazodone in adult patients diagnosed with MDD by the DSM-IV-TR criteria. Patients must have met all of the following inclusion criteria to be considered for enrollment in the study: (1) 18-65 years of age; (2) diagnosis of MDD, single episode or recurrent, according to DSM-IV-TR (296.2/296.3) with a current Major Depressive Episode of less than one year's duration with a minimum duration of at least 4 weeks; (3) HAM-D score≧22 on the first 17 items of the 21-item HAM-D at screening and baseline visits; (4) HAM-D item 1 (depressed mood) score≧2 at the screening visit and the baseline visit; (5) provision of written informed consent to participate; and (6) ability to speak, read and understand English and to respond to questions and follow simple instructions.
Following randomization into vilazodone and placebo groups, patients began the forced titration schedule. Patients received 10 mg qd until Visit 3 (approximately Day 7). At Visit 3 patients received 20 mg qd until Visit 4 (approximately Day 14). At Visit 4 patients received the target dose of 40 mg qd (approximately Day 15). A total of 152 patients completed the vilazodone arm, while 154 patients completed the placebo arm.
This example illustrates genotyping of the study group for the ACE, ATP5C3, BCL2L1, CYP2C9, DRD3, FOS, DTNBP1, GABRG3, GRIA4, LAMA4, MAPK1, NPY1R, OPRD1, OPRM1, PER3, PLCB1, and PSMD1 polymorphic sites selected by the inventors herein for analysis. Genomic DNA was isolated from blood obtained from each individual and amplified target regions containing the polymorphic sites in Tables A-21 to A-37 (Appendix A) were sequenced to determine the genotypes at these polymorphic sites. Tailed (Universal M13 Forward and Reverse) PCR primers were designed using the sequence of SEQ ID NO:1 for ACE, SEQ ID NO:2 for ATP5C3, SEQ ID NO:3 for BCL2L1, SEQ ID NO:4 for CYP2C9, SEQ ID NO:5 for DRD3, SEQ ID NO:6 for FOS, SEQ ID NO:7 for DTNBP1, SEQ ID NO:8 for GABRG3, SEQ ID NO:9 for GRIA4, SEQ ID NO:10 for LAMA4, SEQ ID NO:11 for MAPK1, SEQ ID NO:12 for NPY1R, SEQ ID NO:13 for OPRD1, SEQ ID NO:14 for OPRM1, SEQ ID NO:15 for PER3, SEQ ID NO:16 for PLCB1, and SEQ ID NO:17 for PSMD1. Amplified PCR products were sequenced using Applied Biosystems' Big Dye® Terminator v 3.1 cycle sequencing kit according to manufacturer's instructions. The reaction products were then electrophoresed using an Applied Biosystems 3700 or 3730xl DNA analyzer. Polymorphisms were identified using the Polyphred program, and confirmed by visual inspection.
Haplotypes were estimated from the unphased genotypes using a computer-implemented algorithm for assigning haplotypes to unrelated individuals in a population sample, essentially as described in WO 01/80156. In this method, haplotypes are assigned directly from individuals who are homozygous at all sites or heterozygous at no more than one of the variable sites. This list of haplotypes is then used to deconvolute the unphased genotypes in the remaining (multiply heterozygous) individuals.
This example illustrates analysis of the markers in Tables A-1 to A-17 (Appendix A) for association with vilazodone response. A proprietary algorithm was used as a tool for finding associations between markers and outcomes. The clinical outcomes were improvement in disease over eight weeks of treatment with vilazodone as measured by the MADRS scale. A linear model was first fitted on the covariates, which were treatment center, race, ethnicity, and baseline values. […]

[1] = PLCB1 marker 1, carriers vs non-carriers
[2] = PLCB1 marker 2, carriers vs non-carriers
[3] = PLCB1 marker 3, carriers vs non-carriers
[4] = PLCB1 marker 4, carriers vs non-carriers
[5] = PLCB1 marker 5, carriers vs non-carriers
[6] = PLCB1 marker 6, carriers vs non-carriers
[7] = PLCB1 marker 7, carriers vs non-carriers
[8] = PLCB1 marker 8, carriers vs non-carriers
[9] = PLCB1 marker 9, carriers vs non-carriers
[10] = PLCB1 marker 10, carriers vs non-carriers
[11] = PLCB1 marker 11, carriers vs non-carriers
[12] = PLCB1 marker 12, carriers vs non-carriers
[13] = PLCB1 marker 13, carriers vs non-carriers
[14] = PLCB1 marker 17, carriers vs non-carriers
[15] = PLCB1 marker 18, carriers vs non-carriers
[16] = PLCB1 marker 19, carriers vs non-carriers
[17] = PLCB1 marker 20, carriers vs non-carriers
[18] = PLCB1 marker 21, carriers vs non-carriers
[19] = PLCB1 marker 22, carriers vs non-carriers
[20] = PLCB1 marker 23, carriers vs non-carriers
[21] = PLCB1 marker 24, carriers vs non-carriers
[22] = PLCB1 marker 25, carriers vs non-carriers
[23] = PLCB1 marker 26, carriers vs non-carriers
[24] = PLCB1 marker 27, carriers vs non-carriers
[25] = PLCB1 marker 28, carriers vs non-carriers
[26] = PLCB1 marker 29, carriers vs non-carriers
[27] = PLCB1 marker 30, carriers vs non-carriers
[28] = PLCB1 marker 31, carriers vs non-carriers
[29] = PLCB1 marker 32, carriers vs non-carriers
[30] = PLCB1 marker 33, carriers vs non-carriers
[31] = PLCB1 marker 34, carriers vs non-carriers
[32] = PLCB1 marker 35, carriers vs non-carriers
[33] = PLCB1 marker 36, carriers vs non-carriers
[34] = PLCB1 marker 37, carriers vs non-carriers
[35] = PLCB1 marker 38, carriers vs non-carriers
[36] = PLCB1 marker 39, carriers vs non-carriers
[37] = PLCB1 marker 40, carriers vs non-carriers
[38] = PLCB1 marker 41, carriers vs non-carriers
[39] = PLCB1 marker 42, carriers vs non-carriers
[40] = PLCB1 marker 43, carriers vs non-carriers
[41] = PLCB1 marker 44, carriers vs non-carriers
[42] = PLCB1 marker 45, carriers vs non-carriers
[43] = PLCB1 marker 46, carriers vs non-carriers
[44] = PLCB1 marker 47, carriers vs non-carriers
[45] = PLCB1 marker 48, carriers vs non-carriers
[46] = PLCB1 marker 49, carriers vs non-carriers
[47] = PLCB1 marker 50, carriers vs non-carriers
[48] = PLCB1 marker 51, carriers vs non-carriers
[49] = PLCB1 marker 52, carriers vs non-carriers
[50] = PLCB1 marker 53, carriers vs non-carriers

## Cl.N#Cc1ccc2[nH]cc(CCCCN3CCN(c4ccc5oc(C(N)=O)cc5c4)CC3)c2c1 [Vilazodone, 5-{4-[4-(5-Cyano-3-indolyl)-butyl]-1-piperazinyl}-benzofuran-2-carboxamide hydrochloride]
[1]
  Response difference (Cauc. only): −6.1
  Response difference (all ethnic.): −4.8
[2]
  Response difference (Cauc. only): −6.2
  Response difference (all ethnic.): −4.8
[3]
  Response difference (Cauc. only): −6.5
  Response difference (all ethnic.): −5.1
[4]
  Response difference (Cauc. only): −6.6
  Response difference (all ethnic.): −5.1
[5]
  Response difference (Cauc. only): −5.9
  Response difference (all ethnic.): −4.3
[6]
  Response difference (Cauc. only): −6
  Response difference (all ethnic.): −4.3
[7]
  Response difference (Cauc. only): −5.4
  Response difference (all ethnic.): −3.9
[8]
  Response difference (Cauc. only): −6
  Response difference (all ethnic.): −4.3
[9]
  Response difference (Cauc. only): −6.4
  Response difference (all ethnic.): −5.1
[10]
  Response difference (Cauc. only): −5.8
  Response difference (all ethnic.): −4.6
[11]
  Response difference (Cauc. only): −6.4
  Response difference (all ethnic.): −5.2
[12]
  Response difference (Cauc. only): −7
  Response difference (all ethnic.): −5.6
[13]
  Response difference (Cauc. only): −6.2
  Response difference (all ethnic.): −4.9
[14]
  Response difference (Cauc. only): −6
  Response difference (all ethnic.): −4.7
[15]
  Response difference (Cauc. only): −6
  Response difference (all ethnic.): −4.7
[16]
  Response difference (Cauc. only): −6.6
  Response difference (all ethnic.): −4.6
[17]
  Response difference (Cauc. only): −6.7
  Response difference (all ethnic.): −4.7
[18]
  Response difference (Cauc. only): −5.9
  Response difference (all ethnic.): −4.2
[19]
  Response difference (Cauc. only): −6.7
  Response difference (all ethnic.): −4.7
[20]
  Response difference (Cauc. only): −6.1
  Response difference (all ethnic.): −4.8
[21]
  Response difference (Cauc. only): −6.2
  Response difference (all ethnic.): −4.8
[22]
  Response difference (Cauc. only): −6.5
  Response difference (all ethnic.): −5.1
[23]
  Response difference (Cauc. only): −6.5
  Response difference (all ethnic.): −5.1
[24]
  Response difference (Cauc. only): −6.5
  Response difference (all ethnic.): −5.1
[25]
  Response difference (Cauc. only): −6.5
  Response difference (all ethnic.): −5.1
[26]
  Response difference (Cauc. only): −6.5
  Response difference (all ethnic.): −5.1
[27]
  Response difference (Cauc. only): −6.5
  Response difference (all ethnic.): −5.1
[28]
  Response difference (Cauc. only): −6.5
  Response difference (all ethnic.): −5.1
[29]
  Response difference (Cauc. only): −6.5
  Response difference (all ethnic.): −5.1
[30]
  Response difference (Cauc. only): −6.5
  Response difference (all ethnic.): −5.1
[31]
  Response difference (Cauc. only): −6.5
  Response difference (all ethnic.): −5.1
[32]
  Response difference (Cauc. only): −6.5
  Response difference (all ethnic.): −5.1
[33]
  Response difference (Cauc. only): −6.5
  Response difference (all ethnic.): −5.1
[34]
  Response difference (Cauc. only): −6.5
  Response difference (all ethnic.): −5.1
[35]
  Response difference (Cauc. only): −6.5
  Response difference (all ethnic.): −5.1
[36]
  Response difference (Cauc. only): −6.5
  Response difference (all ethnic.): −5.1
[37]
  Response difference (Cauc. only): −6.6
  Response difference (all ethnic.): −5.1
[38]
  Response difference (Cauc. only): −6.6
  Response difference (all ethnic.): −5.1
[39]
  Response difference (Cauc. only): −6.6
  Response difference (all ethnic.): −5.1
[40]
  Response difference (Cauc. only): −6.6
  Response difference (all ethnic.): −5.1
[41]
  Response difference (Cauc. only): −6.6
  Response difference (all ethnic.): −5.1
[42]
  Response difference (Cauc. only): −6.6
  Response difference (all ethnic.): −5.1
[43]
  Response difference (Cauc. only): −6.6
  Response difference (all ethnic.): −5.1
[44]
  Response difference (Cauc. only): −6.6
  Response difference (all ethnic.): −5.1
[45]
  Response difference (Cauc. only): −6.6
  Response difference (all ethnic.): −5.1
[46]
  Response difference (Cauc. only): −6.6
  Response difference (all ethnic.): −5.1
[47]
  Response difference (Cauc. only): −6.6
  Response difference (all ethnic.): −5.1
[48]
  Response difference (Cauc. only): −6.6
  Response difference (all ethnic.): −5.1
[49]
  Response difference (Cauc. only): −6.6
  Response difference (all ethnic.): −5.1
[50]
  Response difference (Cauc. only): −6.6
  Response difference (all ethnic.): −5.1
